From PMC9995496, “A screen for MeCP2-TBL1 interaction inhibitors using a luminescence-based assay” (Scientific Reports, 2023)

target: T1, MeCP2-TBL1 interaction (MeCP2-SmBiT / TBL1-LgBiT) (Mus musculus, UniProt Q9QXE7); assay: MeCP2-TBL1 NanoLuc luciferase complementation assay (cell-free, extracts of transfected HEK293 cells); type: binding, human; conditions: primary screen of Asinex library, single well per compound;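 note: each compound tested at 20 µM final concentration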
T1 construct: expressed in transfected cells; crude lysate used as a cell-free assay
T1 sequence (Q9QXE7 166-527): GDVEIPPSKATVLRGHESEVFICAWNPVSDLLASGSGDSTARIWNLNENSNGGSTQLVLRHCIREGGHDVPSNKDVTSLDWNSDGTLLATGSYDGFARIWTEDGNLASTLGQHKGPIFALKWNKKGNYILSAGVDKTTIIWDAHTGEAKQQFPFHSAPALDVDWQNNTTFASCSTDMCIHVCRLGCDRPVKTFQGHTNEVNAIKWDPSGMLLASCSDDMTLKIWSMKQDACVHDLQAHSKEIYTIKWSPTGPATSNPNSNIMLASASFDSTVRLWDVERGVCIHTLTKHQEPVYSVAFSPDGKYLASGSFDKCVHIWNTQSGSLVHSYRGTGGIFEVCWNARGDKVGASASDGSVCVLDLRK
How it was run: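 Cell-free split NanoLuc: lysate of HEK293 cells co-expressing the MeCP2 C-terminal half-SmBiT and TBL1 WD domain-LgBiT, mixed 1:1 with furimazine. After 30 min at room temperature, luminescence was plate-median normalized.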

| SMILES | Inhibition percent |
| --- | --- |
| O=C1CCCC[C@]2(CN(Cc3ccnc(N4CCCCC4)n3)C[C@H]2c2ccccc2)N1 [BDH_32353018] | -0.90 |
| CC(=O)N[C@H]1C[C@@H](C(=O)N(C)C)N(C(=O)CCn2cnc3ccccc32)[C@H]1c1ccccc1 [BDG_33631962] | 5.65 |
| CC(=O)N[C@H]1C[C@@H](C(=O)N(C)C)N(C(=O)CCCn2c(C)nc3ccccc32)[C@H]1c1ccccc1 [BDG_33630230] | -0.15 |
| O=C(OCc1ccccc1)N1C[C@@H](O)[C@H](N(Cc2ccccc2)Cc2ccc(F)c(F)c2)C1 [BDE_33958860] | 12.36 |
| Cc1cc(O)cc(=O)n1CC(=O)N1CCCCC1C1CCN(C(=O)Cc2ccccc2F)CC1 (centres unmarked) [BDH_33628360] | -0.67 |
| O=C(CN1CCNCC1c1ccc(C(F)(F)F)cc1)NC(c1ccccc1)c1ccccc1 (centres unmarked) [BDH_33620941] | -0.43 |
| Cc1ncc(C(=O)N2CCOCC2)c(C2CCCCN2C(=O)c2nccc3ccccc23)n1 (centres unmarked) [BDC_23573125] | -0.64 |
| CC1(C)Oc2ccc(Cl)cc2[C@H]2OCC3(CCN(C(=O)CNC(=O)c4ccccc4)CC3)C[C@@H]21 [BDG_33694526] | -2.33 |
| COCCNC(=O)CN1CCCC1c1nc(C)c2c(n1)N(Cc1ccccc1)C(=O)CC2 (centres unmarked) [BDE_24735834] | -1.63 |
| COc1cccc([C@@H]2C[C@]3(C)NC(=O)CCCC[C@@H]3N2CC(=O)Nc2ccc(N3CCCC3)cc2)c1 [BDH_33614614] | -1.03 |
| CN(Cc1ccc(F)cc1)[C@@H]1[C@@H](O)[C@H](Oc2ccccc2F)C[C@H]1NC(=O)CC(C)(C)CC(=O)O [BDG_34135530] | 5.96 |
| COc1ccccc1N1[C@H]2CCCN(C(=O)c3cccc(OCC(=O)O)c3)[C@H]2CC1(C)C [BDG_34133274] | -3.82 |
| O=C1CNC(=O)C2(C/C=C/C[C@H]3COCC[C@H]3N1)CCN(c1ncccn1)CC2 [BDH_33727647] | -1.79 |
| Cc1c(CN2C[C@H](c3ccc(F)cc3)[C@@H](O)[C@H]2C(=O)NCCc2ccccc2)[nH]c2ccc(F)cc12 [BDG_34027529] | 6.14 |
| Cc1n[nH]c(C)c1NC(=O)CN1C[C@@H](c2cc(F)cc(F)c2)[C@@]2(CCCCC(=O)N2)C1 [BDH_33616713] | -0.00541 |
| CNc1nc(C2CCCNC2)nc2c1CCN(C(=O)C1(Oc3ccccc3)CCCCC1)C2 (centres unmarked) [BDE_26713143] | -1.93 |

same assay, conditions: primary screen of the Asinex library, sheet "Sargen output Asinex library", one well per compound

| SMILES | Inhibition percent [%] |
| --- | --- |
| O=C1CNC(=O)C2(C/C=C/C[C@H]3COCC[C@H]3N1)CCN(C(=O)/C=C/c1ccccc1)CC2 [BDH_33728358] | -2.28 |
| O=C1CCCC[C@]2(CN(Cc3ccnc(N4CCOCC4)n3)C[C@H]2c2cccc(F)c2)N1 [BDH_32352634] | -4.25 |
| CC(=O)N[C@@]12CN(C(C)=O)CC[C@@H]1[C@@H](c1ccccc1)N(CC(=O)Nc1cc(F)ccc1C)C2 [BDH_33621128] | 1.60 |
| COCC(=O)N1CCC(C)(C(=O)N2CCC[C@]3(C[C@@H](Oc4cccc(F)c4)CO3)C2)CC1 [BDH_32375031] | -4.50 |
| CCn1c(=O)oc2cc(NC(=O)CN3C[C@]4(NC(C)=O)CN(C)CC[C@@H]4[C@H]3c3ccccc3)ccc21 [BDH_33617644] | -0.000394 |
| COc1cccc(-c2cc(C(=O)N3CCC[C@@]4(C[C@@H](Oc5cccc(Cl)c5)CO4)C3)[nH]n2)c1 [BDH_33516566] | 6.38 |
| Cn1cc(CCC(=O)N2CCCC2c2ccc(CNC3Cc4ccccc4C3)cn2)c2ccccc21 (centres unmarked) [BDD_27352850] | -1.33 |
| Cc1nc(-c2cccnc2)sc1C(=O)N1[C@H]2CCC[C@H]3N[C@H](Cc4ccccc4)[C@@H]1C[C@@]23C [BDG_33506581] | -1.21 |
| Cn1c(COCC(=O)N2CCCCC2c2cc(C(=O)NC3CCCC3)[nH]n2)nc2ccccc21 (centres unmarked) [BDE_33628409] | -3.22 |
| Cc1cccc(CN(CCc2c[nH]c3ccccc23)[C@@H]2CC[C@@H](NCc3ccccc3)[C@H]2O)c1 [BDF_33953574] | 3.88 |
| Cn1c(CNC(=O)CN2[C@H](Cc3ccccc3)C[C@]3(C)NC(=O)CCC[C@H]23)nc2ccccc21 [BDH_33623014] | -0.21 |
| O=C1OC2(CCCN(C(=O)c3ccc(-n4cccn4)nc3)CC2)CN1Cc1ccccc1 (centres unmarked) [BDH_32330719] | -2.98 |
| CC(C)=CCC[C@]1(C)Oc2cc(OCC(=O)O)ccc2[C@H]2OCC3(CCN(C(=O)OC(C)(C)C)CC3)C[C@@H]21 [BDH_33958802] | 4.22 |
| Cc1cc(Oc2ccc(F)cc2)nc(C2CCN(C(=O)c3cncc(-c4cncnc4)c3)CC2)n1 [BDH_32369058] | -2.06 |
| O=C(N1CCC2(CC1)COC(Cc1cccc(F)c1)C2)C1(c2cccc(F)c2)CCOCC1 (centres unmarked) [BDH_32247901] | 0.54 |
| COc1cccc2c1OC(C)(C)[C@H]1CC3(CCNCC3)[C@H](C)O[C@H]21 [BDG_33959669] | 0.05 |
| Fc1cccc(COc2ccccc2CN2CCOCC(Cc3cn4ccnc4cn3)C2)c1 (centres unmarked) [BDH_32359710] | -1.22 |
| Clc1ccc2c(c1)[C@H]1OCCC[C@@H]1C1(CCN(CC3CCOCC3)CC1)O2 [BDG_33901423] | -1.08 |
| Cc1n[nH]c(C)c1S(=O)(=O)N1CCC2(CC1)CO[C@@H]1c3ccccc3OC(C)(C)[C@H]1C2 [BDG_33694386] | 2.05 |
| C=CCN1CCN(C(=O)Cc2cccnc2)C(Cc2ccc(-c3cccs3)cc2)C1=O (centres unmarked) [BDD_21855492] | 0.61 |
| CC(=O)N[C@@]12CN(C)CC[C@@H]1[C@@H](c1ccccc1)N(CC(=O)Nc1cccc(C)c1C)C2 [BDH_33621433] | -4.50 |

same assay, conditions: primary screen of the Asinex library, sheet "Sargen output Asinex library", one well per compound, Batch Ref. 1

| SMILES | Inhibition percent [%] |
| --- | --- |
| O=C(O)c1ccccc1-c1ccc(CN2CCCC2c2ccncn2)cc1 (centres unmarked) [BDE_30687637] | -2.12 |
| CC(C)C[C@H]1CN(C(=O)CCn2c(=O)oc3cc(Cl)ccc32)CC[C@H]1Nc1cccc(F)c1 [BDH_34035644] | 1.76 |
| CC(C)=CCC[C@]1(C)Oc2c(OCCOCCO)cccc2[C@H]2O[C@H]3CCN(C(=O)OC(C)(C)C)C[C@@H]3C[C@@H]21 [BDH_33957239] | 4.83 |
| COc1ccccc1Oc1cccc(C2CCN(C(=O)c3ccnc(N4CCOCC4)c3)CC2)n1 [BDH_32364726] | 2.70 |
| Cn1cc(-c2ccc(C(=O)N3CCCC(c4cccc(Cc5ccc(F)cc5)n4)C3)cn2)cn1 (centres unmarked) [BDH_32365364] | 4.12 |
| COc1ccccc1Cc1cnc(C2CCCN(S(=O)(=O)c3cn(C)nc3C)C2)o1 (centres unmarked) [BDE_33511387] | 4.61 |
| Cc1ccc(NC(=O)CN2[C@H](Cc3ccccc3)C[C@]3(C)NC(=O)CCC[C@H]23)cc1F [BDH_33625782] | 10.91 |
| COCCNC(=O)c1sc2ccccc2c1C1CN(C(=O)C(C)(C)OC)CCO1 (centres unmarked) [BDD_24015180] | -2.46 |
| CCCN1CCN(C(=O)c2c[nH]cn2)CC(Cc2ccccc2-c2ccccc2OC)C1=O (centres unmarked) [BDE_33754981] | 0.35 |
| CCN1C(=O)CC[C@@H](C(=O)NCCOc2ccccc2)[C@@H]1c1ccccc1F [BDC_32230426] | 0.19 |
| CCN1CCN(C(=O)Cc2ccccc2OC)C(Cc2ccc(-c3cccnc3)cc2)C1=O (centres unmarked) [BDD_21886831] | -2.52 |
| COc1cccc([C@@H]2C[C@]3(C)NC(=O)CCCC[C@@H]3N2CC(=O)NCc2nc3ccccc3n2C)c1 [BDH_33622879] | 0.95 |
| Cc1c(C(=O)N2CCC(C3(C)CCCCN(CCc4ccccc4)C3=O)CC2)cnn1C (centres unmarked) [BDE_25215150] | -0.77 |
| Cc1nc(N(C)C)cc(C2(C)CCCN(C(=O)c3ccc(Cl)c(N4CCOCC4)c3)C2)n1 (centres unmarked) [BDH_32364491] | -1.79 |
| CC1(C)Oc2ccc(Cl)cc2[C@H]2O[C@H]3CCN(CC(=O)N4CC(=O)Nc5ccccc54)C[C@@H]3C[C@@H]21 [BDG_34134010] | 2.78 |
| COc1ccccc1-c1ccc(CN2[C@@H](c3ccccc3)C[C@@H]3NC(=O)CCC[C@H]32)cc1 [BDG_23930473] | 6.28 |
| CCN1CCN(C(=O)Cc2ccccc2OC)C(Cc2cccc(-c3ccncc3)c2)C1=O (centres unmarked) [BDD_21872283] | -1.27 |
| Cc1c[nH]c(-c2cncc(CC3CCN(C(=O)c4ccc(Cc5ccccc5F)nc4)CC3)n2)n1 [BDH_33521764] | 0.73 |
| O=C(O)c1cc(F)ccc1Oc1ccccc1 [BDG_34062401] | -1.72 |
| CCc1cc(C(=O)N2CCC3(CC2)CO[C@@H]2c4cc(OC)ccc4OC(C)(C)[C@H]2C3)no1 [BDG_33691868] | 2.32 |
| COc1ccccc1Cc1cnc(C2CCCN(C(=O)c3ccc(Cc4ccccc4)nc3)C2)o1 (centres unmarked) [BDE_33511644] | 3.75 |
| CC(=O)N[C@@]12CN(CC(=O)Nc3ccc4nc(C)[nH]c4c3)CC[C@@H]1[C@@H](c1ccccc1)N(C(C)=O)C2 [BDH_33616134] | 1.14 |
| CC1(C(=O)N2CCOCC(Cc3ccc4ncccc4c3)C2)CCN(C(=O)c2ccccc2)CC1 (centres unmarked) [BDH_32372082] | 0.77 |
| C[C@]12C[C@@H](Cc3ccccc3)N(CC(=O)Nc3cccc(C(F)(F)F)c3)[C@H]1CCCC(=O)N2 [BDH_33616434] | 6.90 |
| Nc1nc(-c2ccccc2)nc2nc(C3CCCN(C(=O)COc4ccccc4)C3)ccc12 (centres unmarked) [BDE_26160293] | -0.81 |
